Substitutions are numbered along the chain they refer to.

In one data set the target is T1, UCHL1 (Homo sapiens, UniProt P09936).
T1 sequence (P09936 1-223): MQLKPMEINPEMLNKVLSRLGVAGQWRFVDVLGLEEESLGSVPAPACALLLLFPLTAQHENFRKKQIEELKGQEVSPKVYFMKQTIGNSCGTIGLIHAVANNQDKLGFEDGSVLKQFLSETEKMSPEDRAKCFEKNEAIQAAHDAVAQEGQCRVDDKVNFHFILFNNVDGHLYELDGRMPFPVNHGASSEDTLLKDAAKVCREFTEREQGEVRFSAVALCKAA
As to the kind of experiment: Intact protein mass spectrometry. The class given is binding. The conditions noted are these: compound 10 µM. An excerpt:
(§1) Spectra were deconvoluted with ProMass (Enovatia).

In a further data set the target is T2, UCHL3 A11I (Homo sapiens, UniProt P15374, A11I).
T2 sequence (P15374 1-230 A11I): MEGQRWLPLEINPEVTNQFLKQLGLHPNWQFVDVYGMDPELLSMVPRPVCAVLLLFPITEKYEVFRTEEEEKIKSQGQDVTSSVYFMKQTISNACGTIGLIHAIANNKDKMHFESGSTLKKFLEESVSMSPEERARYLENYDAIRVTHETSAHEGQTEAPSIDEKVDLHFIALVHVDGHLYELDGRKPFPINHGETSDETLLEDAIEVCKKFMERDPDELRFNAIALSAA
As to the kind of experiment: Intact protein mass spectrometry. The class given is binding. Conditions: enzyme 3 µM; compound 10 µM; 1 h.
Description: as §1

A further data set addresses T3, UCHL3 (Homo sapiens, UniProt P15374).
T3 sequence (P15374 1-230): T2 sequence (P15374 1-230 A11I) with I11A
As to the kind of experiment: Intact protein mass spectrometry. The class given is binding. Conditions: enzyme 3 µM; compound 10 µM; 1 h.
Description: as §1

The target of data set [1] is T4, UCHL3 L168F (Homo sapiens, UniProt P15374, L168F).
T4 sequence (P15374 1-230 L168F): T2 sequence (P15374 1-230 A11I) with I11A, L168F
As to the kind of experiment: Intact protein mass spectrometry. The conditions noted are these: enzyme 3 µM; compound 10 µM; 1 h. The class given is binding.
Description: as §1

For data set [2], the target named is T4, UCHL3 L168F. As to the kind of experiment: Ub-Rhodamine (Ubiquitin rhodamine cleavage) assay. The class given is biochemical.
In another data set the test system is U-87 MG cells. As to the kind of experiment: Cell growth and viability assay (confluency, propidium iodide). The class given is cell-based, human. The conditions noted are these: up to 5 µM, up to 72 h. Here is the method:
(§2) HEK293 cells (5 × 10^3/well) or U-87 MG cells (5.5 × 10^3/well) were seeded into 96-well dishes. The following day cells were treated with the compounds at varying concentrations and propidium iodide at 20 µg/mL. The plates were immediately transferred to the Incucyte S3. Bright-field and red fluorescent images were automatically captured at 1 or 2 h intervals for 72 h with 10x magnification. The confluency of cells and the number of PI-positive cells was determined using the Incucyte masking program.

The test system of a further data set is HEK293 cells. Described as above. Conditions: up to 5 µM, up to 72 h. The class given is cell-based, human. Here is the method:
as §2

Regarding `C#CCCCNC(=O)c1ccc(-n2cnc(NC(=O)[C@H]3CCN(C#N)C3)c2)cc1` [GK13S], the “stoichiometry of covalent binding to UCHL1” value on UCHL1 (UCHL1 3 µM, 16 h) was “bound only once”. The “protein species observed after compound treatment” value is “UCHL1 + 1x GK13S” at UCHL1 (enzyme 3 µM, 1 h); “free UCHL3 A11I” on UCHL3 A11I; “free UCHL3” on UCHL3; “free UCHL3 L168F” on UCHL3 L168F [1]. The same compound had an IC50 on UCHL3 L168F [2] of 33 ± 11 µM. Further, the “toxicity (cell growth and viability)” value in the data set on U-87 MG cells is given as “nontoxic”. The “growth arrest and apoptosis” value with HEK293 cells was “neither GK13S nor GK16S showed growth arrest nor apoptosis”.

Usually IC50 stands for the concentration at which inhibition is half-maximal. Low values mean inhibition by little substance, high ones a need for much substance.

The record behind these values is article PMC9549030, “Structural basis for specific inhibition of the deubiquitinase UCHL1” (Nature Communications, 2022).
